Publication PMC2265467 (PLoS Genetics, 2008)

How the values were obtained:
[1] = test system: yeast expressing ExoS; test: yeast growth recovery of yeast expressing ExoS; settings: CUP1 promoter; library screened at 50 µM
[2] = target: ExoS ADPRT activity (Pseudomonas aeruginosa, UniProt G3XDA1); test: biochemical
[3] = target: ADPRT activity of ExoA (Pseudomonas aeruginosa, UniProt P11439); test: biochemical
ADPRT activity of ExoA, sequence (P11439 26-638 limits assumed): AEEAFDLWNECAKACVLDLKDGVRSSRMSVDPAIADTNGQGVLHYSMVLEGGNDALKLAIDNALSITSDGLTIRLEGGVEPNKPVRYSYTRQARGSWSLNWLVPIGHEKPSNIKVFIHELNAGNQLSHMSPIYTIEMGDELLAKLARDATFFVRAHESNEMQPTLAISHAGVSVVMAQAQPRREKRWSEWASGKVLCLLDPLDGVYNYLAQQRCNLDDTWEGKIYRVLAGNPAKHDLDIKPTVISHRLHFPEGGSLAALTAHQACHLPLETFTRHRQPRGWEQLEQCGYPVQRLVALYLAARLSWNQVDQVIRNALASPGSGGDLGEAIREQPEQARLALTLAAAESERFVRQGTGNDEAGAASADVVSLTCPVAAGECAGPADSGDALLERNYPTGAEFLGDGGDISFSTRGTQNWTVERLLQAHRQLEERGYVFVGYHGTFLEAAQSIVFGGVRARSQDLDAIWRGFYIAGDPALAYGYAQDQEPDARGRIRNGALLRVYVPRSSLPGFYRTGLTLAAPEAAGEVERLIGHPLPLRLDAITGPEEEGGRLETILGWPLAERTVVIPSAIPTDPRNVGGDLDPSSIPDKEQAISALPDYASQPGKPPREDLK

ExoS ADPRT activity, sequence (G3XDA1 whole entry, looked up): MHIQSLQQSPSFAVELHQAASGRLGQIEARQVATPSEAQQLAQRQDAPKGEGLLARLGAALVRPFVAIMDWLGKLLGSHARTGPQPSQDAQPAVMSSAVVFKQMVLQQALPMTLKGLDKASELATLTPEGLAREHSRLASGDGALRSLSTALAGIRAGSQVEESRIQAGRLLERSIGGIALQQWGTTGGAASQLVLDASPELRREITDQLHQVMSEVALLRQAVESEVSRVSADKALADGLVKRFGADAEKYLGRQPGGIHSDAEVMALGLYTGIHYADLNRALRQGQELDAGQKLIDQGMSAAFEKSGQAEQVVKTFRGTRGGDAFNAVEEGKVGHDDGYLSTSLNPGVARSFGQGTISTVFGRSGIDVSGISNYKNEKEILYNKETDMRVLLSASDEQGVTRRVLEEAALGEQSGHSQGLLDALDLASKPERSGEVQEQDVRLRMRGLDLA

Row | SMILES | restoration of growth of yeast expressing ExoS (in words) [1] | IC50 [2] [µM] | Ki [2] [µM] | mode of inhibition of ExoS ADPRT [2] | IC50 [3] [µM]
1 | CCOC(=O)n1c(=O)oc2cc([N+](=O)[O-])ccc21 [0469-0796] | restore yeast growth |  |  |  | 
2 | C=CCOC(=O)C1=C(C)NC(SCC(=O)Nc2nccs2)=C(C#N)C1c1cccs1 (stereo not shown) [4296-1011] | restore yeast growth | 6 |  |  | 
3 | COc1ccc(-c2cc(=O)c3c(O)cc(O[C@@H]4O[C@H](CO[C@@H]5O[C@@H](C)[C@H](O)[C@@H](O)[C@H]5O)[C@@H](O)[C@H](O)[C@H]4O)cc3o2)cc1O [Diosmin, reference compound] | restore yeast growth | 3 |  |  | 
4 | COc1cc(C)c(C(=O)O)c(O)c1 [Everninic acid] | restore yeast growth | 21 |  |  | 
5 | COc1cc(O)c(C(=O)/C=C/c2ccccc2)c(OC)c1 [Flavokawain B] | restore yeast growth |  |  |  | 
6 | CCC1CN(C(=O)Nc2ccc(C)cc2)c2cc(Cl)ccc2O1 (stereo not shown) [exosin-5138] |  | 12 |  |  | 
7 | CCC1CN(C(=O)Nc2ccc(C)cc2)c2ccccc2O1 (stereo not shown) [exosin-5316] |  | 63 |  |  | 
8 | CCC1CN(C(=O)Nc2cccc3c2CCCC3)c2ccccc2O1 (stereo not shown) [exosin-5340] | no protective effect | 129 |  |  | 
9 | CCc1ccc(NC(=O)N2CC(CC)Oc3ccccc32)cc1 (stereo not shown) [exosin] | restore yeast growth |  | 33 ± 3 | competitive inhibitor | 17
